The values that follow come from patent publication US20240082274A1, “FUNGAL COMPOUND COMPOSITIONS AND METHODS FOR MODULATING INFLAMMATION” (TURTLE BEAR HOLDINGS, LLC, priority 2021, published 2024).

The conditions of test [1]: Flanagan and Nichols, 2018; cited from earlier work.
Another test deals with 5-HT2A receptor (Homo sapiens, UniProt P28223). The conditions noted are these: Flanagan and Nichols, 2018; cited from earlier work.
The next test has as its target T1, TRKA (NTRK1) (Homo sapiens, UniProt P04629).
T1 construct: purchased DiscoveRx
Put plainly: MAPK binding affinity screen (DiscoveRx). The conditions noted are these: component alone.

The target in the next test is T2, p38-alpha (MAPK14) (Homo sapiens, UniProt Q16539).
T2 construct: purchased DiscoveRx
Put plainly: MAPK binding affinity screen (DiscoveRx). The conditions noted are these: component alone.

Test [2] deals with T3, JAK1 (JH1domain-catalytic) (Homo sapiens, UniProt P23458).
T3 construct: (JH1domain-; purchased DiscoveRx
Put plainly: MAPK binding affinity screen (DiscoveRx). Conditions: component alone.

The target of the next test is T4, TRKB (NTRK2) (Homo sapiens, UniProt Q16620).
T4 construct: purchased DiscoveRx
Put plainly: MAPK binding affinity screen (DiscoveRx). Conditions: component alone, row of combination at 5 μg/mL.

A further test concerns the target T5, JNK3 (MAPK10) (Homo sapiens, UniProt P53779).
T5 construct: purchased DiscoveRx
Put plainly: MAPK binding affinity screen (DiscoveRx). The conditions noted are these: component alone.

The target of the next test is T6, ROCK2 (Homo sapiens, UniProt O75116).
T6 construct: purchased DiscoveRx
Put plainly: MAPK binding affinity screen (DiscoveRx). Conditions: component alone, row of combination at 62.5 μg/mL.

The conditions of test [3]: cited from earlier work.
Another test concerns the target T7, MAO-B (Homo sapiens, UniProt P27338).
T7 sequence (P27338 1-520): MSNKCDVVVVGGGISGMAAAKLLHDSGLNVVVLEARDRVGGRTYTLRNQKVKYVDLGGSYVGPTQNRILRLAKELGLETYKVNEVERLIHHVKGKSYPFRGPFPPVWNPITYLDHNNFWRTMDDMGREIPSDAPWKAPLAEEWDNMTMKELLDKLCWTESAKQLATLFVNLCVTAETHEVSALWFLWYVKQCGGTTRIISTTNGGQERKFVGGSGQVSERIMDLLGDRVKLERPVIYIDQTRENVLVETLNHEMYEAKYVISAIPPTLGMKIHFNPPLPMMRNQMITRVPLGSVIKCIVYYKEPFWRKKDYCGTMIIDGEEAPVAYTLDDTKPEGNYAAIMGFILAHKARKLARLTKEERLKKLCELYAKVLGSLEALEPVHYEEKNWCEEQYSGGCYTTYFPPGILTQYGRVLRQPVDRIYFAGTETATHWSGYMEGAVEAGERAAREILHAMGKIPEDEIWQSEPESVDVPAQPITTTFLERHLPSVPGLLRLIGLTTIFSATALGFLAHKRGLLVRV
The conditions noted are these: Herraiz et al., 2010; cited from earlier work.

The next test has as its target T8, MAO-A (Homo sapiens, UniProt P21397).
T8 sequence (P21397 1-527): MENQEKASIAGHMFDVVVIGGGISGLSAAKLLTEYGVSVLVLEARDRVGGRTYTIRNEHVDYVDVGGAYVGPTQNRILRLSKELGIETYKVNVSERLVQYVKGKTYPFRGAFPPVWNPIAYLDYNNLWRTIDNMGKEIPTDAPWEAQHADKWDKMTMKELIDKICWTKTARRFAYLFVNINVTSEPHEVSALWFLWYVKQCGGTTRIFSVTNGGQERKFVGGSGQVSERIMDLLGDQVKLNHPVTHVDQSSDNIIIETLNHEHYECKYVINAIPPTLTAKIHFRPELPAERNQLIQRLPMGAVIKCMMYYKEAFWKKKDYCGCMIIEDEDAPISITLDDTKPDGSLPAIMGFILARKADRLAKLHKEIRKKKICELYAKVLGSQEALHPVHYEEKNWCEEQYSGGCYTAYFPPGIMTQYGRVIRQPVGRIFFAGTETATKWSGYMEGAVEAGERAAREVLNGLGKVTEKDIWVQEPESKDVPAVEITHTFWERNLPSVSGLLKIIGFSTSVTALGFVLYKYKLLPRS
The conditions noted are these: Herraiz et al., 2010; cited from earlier work.

In another test the test system is PC12 cells. Put plainly: Neurite outgrowth in rat PC12 cells. It counts as cell-based. Conditions: 6 days. The text has this: Rat PC12 cells are a cell line derived from rat pheochromocytoma and are an immortalised cell line similar to the primary culture of fetal neurons. These cells are relatively easy to passage and culture and have some features of neurons, which makes them useful in the study of nerve physiology and pharmacology.

The next test concerns TNF-α. Put plainly: TNF-α expression in LPS-induced human PBMCs. The conditions noted are these: 100 ng/mL LPS, individual components, FIG. 13. It counts as cell-based.
A further test relates to IL-10. Put plainly: IL-10 expression in human PBMCs under standard non-inflammatory conditions. It counts as cell-based. Conditions: at multiple concentrations. Here is the method:
In a separate experiment, human peripheral blood mononuclear cells (PBMCs) were treated with different concentrations of norbaeocystin, norpsilocin, and vehicle control under standard non-inflammatory conditions, and IL-10 expression was measured.

Another test relates to IL-6. Conditions: human PBMCs, 100 ng/mL LPS; 0.43 μg/mL; FIG. 12.
The test system of the next test is MAPK. Put plainly: MAPK binding screen, general statements. Conditions: low ng concentrations. The text has this:
It was identified that many combination formulations of tryptamines, He/PEP/Erinacine C, and niacin can interact with several mitogen-activated protein kinases (MAPKs) involved with brain health and can even provide synergistic benefits (Tables 7-8).
It was surprising and unexpected that such dilute psilocin at low ng concentrations produced a synergistic effect on MAPK binding when combined with other components because these low concentrations had no effect on MAPK binding when used alone. Therefore, one would have expected these low concentrations to be ineffective. The low concentrations also overcome the pharmacodynamic issues faced when using high concentrations of psilocin.

[4] abbreviates: row of combination at 125 μg/mL.
Where [5] appears, read: row of combination at 2.5 μg/mL.
Where [6] appears, read: row of combination at 16, 16 ng/mL.
Where [7] appears, read: row of combination at 3, 0.2 ng/mL.
The mark [8] stands for this setting: row of combination at 250 μg/mL.
[9] abbreviates: row of combination at 0.6, 0.6 ng/mL.

Structures are written as SMILES.

T3 sequence (P23458 875-1153 limits assumed): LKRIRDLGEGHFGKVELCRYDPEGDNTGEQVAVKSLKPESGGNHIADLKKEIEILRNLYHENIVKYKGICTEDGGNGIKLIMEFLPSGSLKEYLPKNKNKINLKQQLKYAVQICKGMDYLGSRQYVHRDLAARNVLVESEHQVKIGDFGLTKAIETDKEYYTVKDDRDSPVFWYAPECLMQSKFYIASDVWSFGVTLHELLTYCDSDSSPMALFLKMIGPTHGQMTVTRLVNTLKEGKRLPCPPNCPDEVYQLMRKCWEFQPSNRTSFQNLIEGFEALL
T5 sequence (P53779 whole entry): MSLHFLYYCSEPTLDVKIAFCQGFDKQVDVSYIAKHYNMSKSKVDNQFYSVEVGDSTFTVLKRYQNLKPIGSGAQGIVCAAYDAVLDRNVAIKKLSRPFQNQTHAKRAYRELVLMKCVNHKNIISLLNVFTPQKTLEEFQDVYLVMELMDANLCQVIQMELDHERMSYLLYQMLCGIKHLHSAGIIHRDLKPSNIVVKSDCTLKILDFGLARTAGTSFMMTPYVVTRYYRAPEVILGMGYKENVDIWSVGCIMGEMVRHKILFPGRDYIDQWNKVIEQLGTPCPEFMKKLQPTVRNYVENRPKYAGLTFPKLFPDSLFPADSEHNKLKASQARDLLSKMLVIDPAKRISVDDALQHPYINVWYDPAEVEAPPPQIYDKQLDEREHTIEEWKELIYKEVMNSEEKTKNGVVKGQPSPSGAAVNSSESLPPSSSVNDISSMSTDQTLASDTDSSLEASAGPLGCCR
T2 sequence (Q16539 whole entry): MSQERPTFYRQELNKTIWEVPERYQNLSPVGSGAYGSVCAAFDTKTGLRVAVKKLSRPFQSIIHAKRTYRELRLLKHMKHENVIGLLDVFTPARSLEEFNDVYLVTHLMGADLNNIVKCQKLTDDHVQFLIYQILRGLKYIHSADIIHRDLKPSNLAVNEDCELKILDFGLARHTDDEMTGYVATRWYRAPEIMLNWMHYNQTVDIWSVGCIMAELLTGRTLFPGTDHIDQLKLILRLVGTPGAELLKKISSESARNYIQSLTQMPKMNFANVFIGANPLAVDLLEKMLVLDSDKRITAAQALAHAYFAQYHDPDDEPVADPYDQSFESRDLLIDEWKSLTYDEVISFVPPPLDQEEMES
T1 sequence (P04629 33-796): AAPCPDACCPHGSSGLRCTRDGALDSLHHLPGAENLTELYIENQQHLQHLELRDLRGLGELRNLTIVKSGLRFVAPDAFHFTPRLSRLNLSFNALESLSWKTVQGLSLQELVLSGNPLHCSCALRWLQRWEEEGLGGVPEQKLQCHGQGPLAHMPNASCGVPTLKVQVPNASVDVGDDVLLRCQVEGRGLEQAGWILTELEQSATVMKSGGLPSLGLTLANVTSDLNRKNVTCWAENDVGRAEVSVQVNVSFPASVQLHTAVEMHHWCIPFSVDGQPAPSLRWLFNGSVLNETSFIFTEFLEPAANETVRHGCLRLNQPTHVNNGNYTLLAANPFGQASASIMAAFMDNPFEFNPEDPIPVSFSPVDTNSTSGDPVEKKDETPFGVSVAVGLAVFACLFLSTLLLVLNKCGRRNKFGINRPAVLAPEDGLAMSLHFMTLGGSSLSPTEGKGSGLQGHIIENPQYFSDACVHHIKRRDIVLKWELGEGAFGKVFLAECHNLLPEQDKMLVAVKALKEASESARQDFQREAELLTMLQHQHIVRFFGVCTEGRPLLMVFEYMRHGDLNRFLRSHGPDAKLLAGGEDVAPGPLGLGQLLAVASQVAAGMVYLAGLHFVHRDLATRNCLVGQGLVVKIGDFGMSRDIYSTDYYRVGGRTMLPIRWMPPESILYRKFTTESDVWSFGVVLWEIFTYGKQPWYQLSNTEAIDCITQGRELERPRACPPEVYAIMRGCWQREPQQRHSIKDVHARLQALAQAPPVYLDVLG
T4 sequence (Q16620 32-822): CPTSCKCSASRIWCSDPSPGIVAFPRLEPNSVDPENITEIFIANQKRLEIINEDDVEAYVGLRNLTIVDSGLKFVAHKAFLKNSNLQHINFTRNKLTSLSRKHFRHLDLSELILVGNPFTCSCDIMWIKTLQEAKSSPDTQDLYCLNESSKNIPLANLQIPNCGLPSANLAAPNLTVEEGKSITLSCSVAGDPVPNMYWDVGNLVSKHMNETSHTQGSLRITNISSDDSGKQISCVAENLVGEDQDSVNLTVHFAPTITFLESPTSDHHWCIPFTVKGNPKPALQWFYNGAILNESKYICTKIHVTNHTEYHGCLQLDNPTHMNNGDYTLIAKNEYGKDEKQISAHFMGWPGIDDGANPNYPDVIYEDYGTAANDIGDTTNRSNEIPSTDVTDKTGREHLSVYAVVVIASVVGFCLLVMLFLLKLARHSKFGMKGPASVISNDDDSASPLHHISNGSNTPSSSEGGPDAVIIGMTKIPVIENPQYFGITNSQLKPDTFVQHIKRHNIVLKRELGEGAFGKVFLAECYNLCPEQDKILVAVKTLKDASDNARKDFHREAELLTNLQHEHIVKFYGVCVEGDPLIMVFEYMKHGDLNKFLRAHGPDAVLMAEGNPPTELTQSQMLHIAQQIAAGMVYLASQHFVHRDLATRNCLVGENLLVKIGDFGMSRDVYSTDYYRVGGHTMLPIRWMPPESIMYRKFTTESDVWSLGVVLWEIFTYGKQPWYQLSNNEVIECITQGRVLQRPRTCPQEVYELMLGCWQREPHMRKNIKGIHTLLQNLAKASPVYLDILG
Sequence of 5-HT2A receptor (P28223 whole entry): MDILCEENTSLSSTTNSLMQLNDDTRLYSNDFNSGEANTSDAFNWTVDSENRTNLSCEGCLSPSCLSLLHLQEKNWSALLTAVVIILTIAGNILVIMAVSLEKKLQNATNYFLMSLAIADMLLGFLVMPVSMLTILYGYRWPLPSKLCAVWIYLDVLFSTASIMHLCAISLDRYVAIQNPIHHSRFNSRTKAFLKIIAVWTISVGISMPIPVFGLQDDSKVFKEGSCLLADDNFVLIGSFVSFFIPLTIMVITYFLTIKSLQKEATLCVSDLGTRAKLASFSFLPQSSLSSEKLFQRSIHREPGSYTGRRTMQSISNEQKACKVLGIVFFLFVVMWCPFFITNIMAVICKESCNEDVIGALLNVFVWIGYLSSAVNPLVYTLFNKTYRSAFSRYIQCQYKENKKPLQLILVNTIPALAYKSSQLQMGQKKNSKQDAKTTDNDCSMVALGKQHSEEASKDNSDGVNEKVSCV
T6 sequence (O75116 whole entry): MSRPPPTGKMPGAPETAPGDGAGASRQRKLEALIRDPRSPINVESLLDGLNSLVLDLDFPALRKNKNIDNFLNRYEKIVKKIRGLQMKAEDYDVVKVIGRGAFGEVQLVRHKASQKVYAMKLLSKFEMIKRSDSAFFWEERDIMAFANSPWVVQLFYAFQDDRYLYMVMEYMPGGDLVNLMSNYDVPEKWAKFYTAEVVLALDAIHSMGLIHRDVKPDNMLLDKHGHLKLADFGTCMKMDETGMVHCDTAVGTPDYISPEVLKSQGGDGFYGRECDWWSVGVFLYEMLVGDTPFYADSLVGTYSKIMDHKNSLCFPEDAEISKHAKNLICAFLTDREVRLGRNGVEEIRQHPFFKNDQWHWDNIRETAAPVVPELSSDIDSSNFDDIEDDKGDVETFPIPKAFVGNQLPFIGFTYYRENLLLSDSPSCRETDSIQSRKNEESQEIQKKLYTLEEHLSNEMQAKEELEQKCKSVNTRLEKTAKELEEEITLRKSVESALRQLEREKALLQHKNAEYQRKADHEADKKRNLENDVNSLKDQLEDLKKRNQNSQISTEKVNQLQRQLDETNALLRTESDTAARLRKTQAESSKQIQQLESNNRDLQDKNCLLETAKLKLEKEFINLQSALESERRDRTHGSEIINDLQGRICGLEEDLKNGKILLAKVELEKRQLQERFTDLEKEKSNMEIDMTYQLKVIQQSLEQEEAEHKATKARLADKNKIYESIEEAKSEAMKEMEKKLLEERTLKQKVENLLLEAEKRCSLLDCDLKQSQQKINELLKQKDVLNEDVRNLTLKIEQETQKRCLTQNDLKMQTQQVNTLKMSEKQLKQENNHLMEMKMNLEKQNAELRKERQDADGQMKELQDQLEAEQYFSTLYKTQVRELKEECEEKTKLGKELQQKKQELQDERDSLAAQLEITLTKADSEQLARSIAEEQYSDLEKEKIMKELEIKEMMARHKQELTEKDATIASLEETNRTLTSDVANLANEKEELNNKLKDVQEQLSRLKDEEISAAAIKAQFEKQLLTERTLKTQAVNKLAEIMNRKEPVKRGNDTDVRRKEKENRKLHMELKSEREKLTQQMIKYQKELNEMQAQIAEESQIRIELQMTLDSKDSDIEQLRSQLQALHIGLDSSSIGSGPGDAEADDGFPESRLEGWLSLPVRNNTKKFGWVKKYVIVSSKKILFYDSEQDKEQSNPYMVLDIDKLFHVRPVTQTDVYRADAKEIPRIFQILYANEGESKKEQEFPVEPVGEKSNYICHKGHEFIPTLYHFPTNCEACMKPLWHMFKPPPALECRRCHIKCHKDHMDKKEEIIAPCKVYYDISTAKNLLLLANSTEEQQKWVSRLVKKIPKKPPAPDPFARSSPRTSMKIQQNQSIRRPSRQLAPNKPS
Experimental for IL-6: Human PBMCs were treated with 100 ng/mL LPS to induce inflammatory conditions.

For `COc1cc(C[C@@H](C)N)c(OC)cc1I` [(R)-2,5-dimethoxy-4-iodoamphetamine], in [1], the “inflammation in the lungs” value was “prevent and reverse inflammation in the lungs”. In addition, on 5-HT2A receptor, the 5-HT2A receptor activation result is reported as “activate the 5-HT2A receptor”.
In the case of `CNCCc1c[nH]c2cccc(OP(=O)(O)O)c12` [Baeo, 4-phosphoryloxy-N-methyltryptamine], the “MAPK binding affinity value of individual component” value (“MAPK binding affinity value” below) is on record as 6 on TRKA (NTRK1) (combinations at 250 μg/mL); 3 on TRKA (NTRK1) (setting [4]); 2 at p38-alpha (MAPK14) (combinations at 2.5 μg/mL); 9 on p38-alpha (MAPK14) (combinations at 5 μg/mL); 1 on p38-alpha (MAPK14) (combinations at 10 μg/mL); 1 at p38-alpha (MAPK14) (combinations at 250 μg/mL). Besides, the “MAPK binding affinity value” value is recorded as 1 in test [2] (setting [5]), 12 at TRKB (NTRK2), 8 on JNK3 (MAPK10) (setting [4]) and 0 on ROCK2. Further, the “hallucinogenic effect after consumption” value in test [3] (4 mg, anecdotal, Gartz 1991) was “gentle hallucinogenic experience”. In addition, in test [3] (10 mg and 20 mg, case studies), the “hallucinogenic effect after oral consumption” value is “did not produce any hallucinogenic effects”.
Turning to `CN(C)CCc1c[nH]c2ccccc12` [DMT, N,N-dimethyltryptamine], in test [2] (setting [6]), the “MAPK binding affinity value” value amounted to 5.
Regarding `CC(C)C1=C2C3=CC=C(CO)[C@H]4O[C@H]5[C@@H](OC[C@@H](O)[C@@H]5O)O[C@@H]4[C@]3(C)CC[C@@]2(C)CC1` [Erinacine C], the “MAPK binding affinity value” value on JNK3 (MAPK10) (setting [7]) is given as 6.
As to `COc1ccc2c(c1)[nH]c1c(C)nccc12` [Harmine, 7-methyoxy-1-methyl-carboline], the MAO-B inhibition entry on MAO-B is on record as “poor inhibitors of MAO-B”. Further, the MAO-A inhibition entry on MAO-A is “specific MAO-A inhibitors”.
Consider `O=C(O)c1cccnc1` [Niacin, nicotinic acid, reference compound], for which the “MAPK binding affinity value” value in test [2] (setting [8]) is 6; in test [2] (setting [6]) it was 5; on JNK3 (MAPK10) (setting [9]) it was 0. The “highest mean neurite outgrowth, of vehicle control” value with PC12 cells (0.35 μg/mL) stood at 112%. The “anti-inflammatory effect (TNF-α expression)” value in the test on TNF-α is recorded as “have anti-inflammatory effects at certain concentrations”.
`NCCc1c[nH]c2cccc(OP(=O)(O)O)c12` [Norbaeo, 4-phosphoryloxy-tryptamine]: the “MAPK binding affinity value” value at TRKA (NTRK1) (combinations at 250 μg/mL) is 3; at p38-alpha (MAPK14) (combinations at 2.5 μg/mL) it was 22; on p38-alpha (MAPK14) (combinations at 5 μg/mL) it was 12; on p38-alpha (MAPK14) (combinations at 10 μg/mL) it was 17; in test [2] (setting [5]), 3; in [2] (rows of combinations at 62.5 μg/mL) it was 3. For the same compound, the “MAPK binding affinity value” value is given as 0 at TRKB (NTRK2), 4 at JNK3 (MAPK10) (row of combination at 5 μg/mL) and 4 at JNK3 (MAPK10) (setting [4]). Further, the “expression of the anti-inflammatory cytokine IL-10” value in the test on IL-10 is on record as “significantly upregulate”. Besides, in the test on IL-6, the IL-6 expression entry is recorded as “significantly reduced”.
In the case of `CNCCc1c[nH]c2cccc(O)c12` [Norpsilo, 4-hydroxy-N-methyl-tryptamine], the “MAPK binding affinity value” value on p38-alpha (MAPK14) (combinations at 2.5 μg/mL) came out at 15; at p38-alpha (MAPK14) (combinations at 5 μg/mL), 1; at p38-alpha (MAPK14) (combinations at 10 μg/mL), 21; on p38-alpha (MAPK14) (combinations at 250 μg/mL), 21; in test [2] (setting [8]), 0; on JNK3 (MAPK10) (row of combination at 5 μg/mL) it was 19. For the same compound, in the test on TNF-α, the “anti-inflammatory effect (TNF-α expression)” value is “have anti-inflammatory effects at certain concentrations”. In addition, the “expression of the anti-inflammatory cytokine IL-10” value in the test on IL-10 was “significantly upregulate”.
Regarding `CN(C)CCc1c[nH]c2cccc(O)c12` [Psilocin, 4-hydroxy-N,N-dimethyltryptamine], the “MAPK binding affinity value” value in test [2] (row of combination at 30, 1.8 ng/mL) is 1; at JNK3 (MAPK10) (setting [9]), 1; at JNK3 (MAPK10) (setting [7]), 2. For the same compound, the “effect on MAPK binding when used alone” value in the test on MAPK is “no effect”. Further, in the test with PC12 cells (0.043 μg/mL), the “highest mean neurite outgrowth, of vehicle control” value was 168%.
For the compound `COc1ccc2c3c([nH]c2c1)C(C)=NCC3` [harmaline, 3,4-dihydro-7-methoxy-1-methyl-carboline], the MAO-B inhibition entry at MAO-B is recorded as “poor inhibitors of MAO-B”. In addition, the MAO-A inhibition entry at MAO-A is reported as “specific MAO-A inhibitors”.
